# Test results as given in paper PMC3973943, “Microwave-assisted synthesis of some hybrid molecules containing penicillanic acid or cephalosporanic acid moieties and investigation of their biological activities” (Medicinal Chemistry Research, 2013).
# Target: Jack bean urease (Canavalia ensiformis, UniProt P07374)
# Test: indophenol ammonia assay, […] nm
# Assay type: biochemical
# Chain of Jack bean urease (P07374 whole entry): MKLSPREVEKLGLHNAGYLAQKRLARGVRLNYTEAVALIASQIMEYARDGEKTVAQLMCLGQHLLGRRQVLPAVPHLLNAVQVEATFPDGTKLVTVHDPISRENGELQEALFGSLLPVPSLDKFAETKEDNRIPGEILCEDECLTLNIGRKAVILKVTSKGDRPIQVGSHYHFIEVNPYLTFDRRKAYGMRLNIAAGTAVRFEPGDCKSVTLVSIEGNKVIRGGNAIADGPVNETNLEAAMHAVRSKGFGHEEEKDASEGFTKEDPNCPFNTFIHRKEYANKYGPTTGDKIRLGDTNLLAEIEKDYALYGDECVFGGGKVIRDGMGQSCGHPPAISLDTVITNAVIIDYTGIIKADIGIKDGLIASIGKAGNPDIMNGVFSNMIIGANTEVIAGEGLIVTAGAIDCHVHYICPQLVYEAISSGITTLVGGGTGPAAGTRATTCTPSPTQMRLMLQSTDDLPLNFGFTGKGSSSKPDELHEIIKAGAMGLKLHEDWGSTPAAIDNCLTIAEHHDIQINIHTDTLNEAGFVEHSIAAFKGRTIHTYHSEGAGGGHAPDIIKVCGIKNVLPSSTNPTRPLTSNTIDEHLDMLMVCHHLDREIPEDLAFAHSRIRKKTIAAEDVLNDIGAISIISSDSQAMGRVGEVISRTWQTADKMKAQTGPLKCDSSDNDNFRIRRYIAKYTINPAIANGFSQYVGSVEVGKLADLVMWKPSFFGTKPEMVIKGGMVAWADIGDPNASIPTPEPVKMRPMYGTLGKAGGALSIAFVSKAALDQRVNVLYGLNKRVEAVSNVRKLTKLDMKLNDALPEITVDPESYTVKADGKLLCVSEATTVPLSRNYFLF
row,Compound,IC50 [µM]
1,"NC(N)=S [Thiourea, reference compound]",717
2,"CCOC(=O)N1CCN(c2ccc(NCc3nn(CN[C@@H]4C(=O)N5C(C(=O)O)=C(COC(C)=O)CS[C@H]45)c(=S)n3-c3ccc(F)cc3)cc2F)CC1 [compound 15, ({[(6R,7R)-3-[(Acetyloxy)methyl]-7-({[3-[({4-[4-(ethoxycarbonyl)piperazin-1-yl]-3-fluorophenyl}amino)methyl]-4-(4-fluorophenyl)-5-thioxo-4,5-dihydro-1H-1,2,4-triazol-1-yl]methyl}amino)-8-oxo-5-thia-1-azabicyclo[4.2.0]oct-2-en-2-yl]carbonyl}oxy)triethyl ammonium]",6.15
3,"CCOC(=O)N1CCN(c2ccc(NCc3nn(CN[C@@H]4C(=O)N5[C@@H]4SC(C)(C)[C@@H]5C(=O)O)c(=S)n3-c3ccccc3)cc2F)CC1 [compound 17, [({(5R,6R)-6-[({3-[({4-[4-(Ethoxycarbonyl)piperazin-1-yl]-3-fluorophenyl}amino)methyl]-4-phenyl-5-thioxo-4,5-dihydro-1H-1,2,4-triazol-1-yl}methyl)amino]-3,3-dimethyl-7-oxo-4-thia-1-azabicyclo[3.2.0]hept-2-yl}carbonyl)oxy](triethyl)ammonium]",66.3
